One compound from ChEMBL document CHEMBL3396954, “Synthesis and in vitro biological evaluation of dihydroartemisinyl-chalcone esters” (Eur J Med Chem, 2015) can be followed below.

The subject of data set [1] is Plasmodium falciparum. Kind of data set: Antimalarial activity against chloroquine-resistant Plasmodium falciparum W2 assessed as inhibition of parasite proliferation after 96 hrs by SYBR Green I-based fluorescence method. Format: functional, organism-based. To be noted: W2, 96 h.
Data set [2] concerns Plasmodium falciparum. Kind of data set: Antimalarial activity against chloroquine-sensitive Plasmodium falciparum 3D7 assessed as inhibition of parasite proliferation after 96 hrs by SYBR Green I-based fluorescence method. The format is functional, organism-based. To be noted: 3D7, 96 h.
For data set [3], the system named is TK-10. Kind of data set: Anticancer activity against human TK10 cells assessed as inhibition of cell growth after 24 hrs by SRB assay. Format: functional, cell-based. To be noted: TK-10, 24 h.
Data set [4] deals with MCF7. Kind of data set: Selectivity index, ratio of IC50 for human WI38 cells to IC50 for human MCF7 cells. Format: functional.
Data set [5] has as its system WI-38. Kind of data set: Selectivity index, ratio of IC50 for human WI38 cells to IC50 for human TK10 cells. Format: functional.
The subject of data set [6] is UACC-62. Kind of data set: Selectivity index, ratio of IC50 for human WI38 cells to IC50 for human UACC62 cells. The format is functional.
Data set [7] can be described thus: Resistance index, ratio of IC50 for chloroquine-resistant Plasmodium falciparum W2 to IC50 for chloroquine-sensitive Plasmodium falciparum 3D7. Format: functional.
In data set [8] the test system is MCF7. Kind of data set: Anticancer activity against human MCF7 cells assessed as inhibition of cell growth after 24 hrs by SRB assay. The format is functional, cell-based. To be noted: MCF7, 24 h. A general note: Sulforhodamine B stains cellular protein and so reports cell mass.
The nature of data set [9]: Cytotoxicity against human WI38 cells assessed as inhibition of proliferation after 24 hrs by SRB assay. The format is cell-based. To be noted: WI-38, 24 h.
The nature of data set [10]: Anticancer activity against human UACC62 cells assessed as inhibition of cell growth after 24 hrs by SRB assay. The format is functional, cell-based. To be noted: UACC-62, 24 h.
The nature of data set [11]: Selectivity index, ratio of IC50 for chloroquine-resistant Plasmodium falciparum W2 to IC50 for human MCF7 cells.
Data set [12] is described as follows: Selectivity index, ratio of IC50 for chloroquine-resistant Plasmodium falciparum W2 to IC50 for human UACC62 cells. Also noted: species or system UACC-62.
The nature of data set [13]: Selectivity index, ratio of IC50 for human WI38 cells to IC50 for chloroquine-sensitive Plasmodium falciparum 3D7. Format: toxicity, cell-based, WI-38. To be noted: read-out: Ratio IC50.
Data set [14] can be described thus: Selectivity index, ratio of IC50 for chloroquine-resistant Plasmodium falciparum W2 to IC50 for human TK10 cells. On the set-up: species or system TK-10.

For the compound `COc1ccc(C(=O)/C=C/c2ccc(C(=O)O)cc2)cc1OC`, the IC50 in [1] stood at 0.0108 µM; in data set [2], 0.0108 µM; in data set [3], 18.9 µM; in [8], 8.88 µM; in data set [9] it was 67.4 µM; in data set [10], 7.87 µM. In addition, the “Ratio IC50” value in data set [4] stood at 7.6; in [5] it was 3.6; in data set [6], 8.6; in [7], 1; in data set [11], 0.8; in [12], 0.7. Moreover, the “Ratio IC50” value in data set [14] came to 1.7. In addition, the selectivity ratio in data set [13] was 6.2.

For orientation: IC50 means the concentration that inhibits the measured activity by half.
